Patent US9322066B2, “Predictors for cancer treatment” (priority 2011, dated 2016)

Tested on: relapsed or refractory, rituximab-naive or -sensitive follicular B-cell NHL
Test: Progression-free survival (PFS), Vc-R vs rituximab study, by biomarker
Format: in vivo, human
Source text: Non-Hodgkin lymphoma (NHL) encompasses several unique malignant lymphoid disease entities that vary in clinical behavior, morphologic appearance, immunologic, and molecular phenotype. […] A randomized, open-label, active-controlled, multicenter, multinational, prospective study to compare the efficacy and safety of the combination of bortezomib and rituximab (Vc-R) to single-agent rituximab in subjects who have relapsed or refractory, rituximab-naive or -sensitive follicular B-cell NHL was performed.
Subjects were centrally randomized to Treatment Groups A (Vc-R) or B (rituximab) in a 1:1 ratio taking into account the following stratification factors: • Follicular Lymphoma International Prognostic Index (FLIPI) score (low [0 or 1 factor], intermediate [2 factors], high [≧3 factors]); • Prior rituximab therapy (yes, no); • Time since last dose of anti-lymphoma therapy (≦1 year, >1 year); • Region (United States/Canada, European Union, Rest of World).
The following clinical endpoints were included in the analysis within each treatment group and an overall comparison was made with the biomarker-related endpoints: Progression-free survival, defined as the interval between the date of randomization and the date of progressive disease (PD) or death, whichever is first reported in the ITT population; overall survival; overall response rate (complete response [CR]+CR unconfirmed [CRu]+partial response [PR]); overall CR rate (CR+CRu); duration of response; time to next anti-lymphoma therapy; and treatment free interval.
For single-marker association analyses and pair-wise comparisons, a log rank test and Cox proportional hazard model was utilized for assessments of PFS, TTP, and OS between the treatment groups. Kaplan-Meier curves were utilized to estimate the distribution differences between groups in the time-to-event analyses. Comparison of the response rates between the treatment groups was conducted using the Fishers exact test. Single-marker association analyses were stratified by the covariates.
For pair-wise comparison analysis, biomarker pairs were formed by combinations of two markers. A log rank test was utilized for assessments of PFS, TTP, and OS between the treatment groups in the subpopulation defined by biomarker pairs. Kaplan-Meier curves were utilized to estimate the distribution differences between groups in the time-to-event analyses. Comparison of the response rates between the treatment groups was conducted using the Fishers exact test. Methods of Analysis for the multiple biomarker comparison models can be found in section 4.6.
The stratified log rank test and Cox proportional hazard model was utilized for assessments of PFS between the treatment groups. The Kaplan-Meier method was to be used to estimate the distribution of overall PFS for each treatment group in the biomarker population, and overall; stratified by expression level, SNP, or mutation (or covariate groups as noted above). The hazard ratio and 95% confidence interval was based on a stratified Cox's proportion hazard model with treatment as the explanatory variable. Analyses were done for the population overall and by treatment group, and each of these analyses were also stratified by the following factors if sufficient sample size existed: […]

rituximab
Median PFS (Vc − R vs R) (20S % NUCLEAR STAINING 30-90 + 20S INTENSITY CYTOPLASMIC SIGNAL >=3+, Excluded): 347 days | Median PFS (Vc − R vs R) (20S % NUCLEAR STAINING 30-90 + 20S INTENSITY CYTOPLASMIC SIGNAL >=3+, Selected): 280 days | Median PFS (Vc − R vs R) (20S % NUCLEAR STAINING 30-90 + 20S INTENSITY CYTOPLASMIC SIGNAL >=3+, Total): 345 days | Median PFS (Vc-R vs R) (AGEGRP <=65 + CD68 POSITIVE FOLLICULAR 0-50, Excluded): 427 days | Median PFS (Vc-R vs R) (AGEGRP <=65 + CD68 POSITIVE FOLLICULAR 0-50, Selected): 275 days | Median PFS (Vc-R vs R) (AGEGRP <=65 + CD68 POSITIVE FOLLICULAR 0-50, Total): 346 days | Median PFS (Vc − R vs R) (AGEGRP <=65 + CD68 POSITIVE PERIFOLLICULAR 0-50, Excluded): 351 days | Median PFS (Vc − R vs R) (AGEGRP <=65 + CD68 POSITIVE PERIFOLLICULAR 0-50, Selected): 281 days | Median PFS (Vc − R vs R) (AGEGRP <=65 + CD68 POSITIVE PERIFOLLICULAR 0-50, Total): 346 days | Median PFS (Vc − R vs R) (AGEGRP <=65 + P27 % NUCLEI POSITIVE 0-70, Excluded): 348 days | Median PFS (Vc − R vs R) (AGEGRP <=65 + P27 % NUCLEI POSITIVE 0-70, Selected): 279 days | Median PFS (Vc − R vs R) (AGEGRP <=65 + P27 % NUCLEI POSITIVE 0-70, Total): 345 days | PFS median (Biomarker Negative (all subjects without the pair), N = 238): 12.5 months | PFS median (Biomarker Positive (PSMB P11A heterozygote and CD68 Low), N = 118): 9.1 months | PFS median (CD68 OVERALL POSITIVE 0-25): 10.6 mo | PFS median (CD68 OVERALL POSITIVE 26-50): 9.3 mo | PFS median (CD68 POSITIVE FOLLICULAR 0-25): 9.3 mo | Median PFS (Vc − R vs R) (CD68 POSITIVE FOLLICULAR 0-50 + CD68 POSITIVE PERIFOLLICULAR 0-50, Excluded): 351 days | Median PFS (Vc − R vs R) (CD68 POSITIVE FOLLICULAR 0-50 + CD68 POSITIVE PERIFOLLICULAR 0-50, Selected): 282 days | Median PFS (Vc − R vs R) (CD68 POSITIVE FOLLICULAR 0-50 + CD68 POSITIVE PERIFOLLICULAR 0-50, Total): 346 days | Median PFS (Vc − R vs R) (CD68 POSITIVE FOLLICULAR 0-50 + P65 % POSITIVE CYTOPLASMIC SIGNAL >90%, Excluded): 486 days | Median PFS (Vc − R vs R) (CD68 POSITIVE FOLLICULAR 0-50 + P65 % POSITIVE CYTOPLASMIC SIGNAL >90%, Selected): 279 days | Median PFS (Vc − R vs R) (CD68 POSITIVE FOLLICULAR 0-50 + P65 % POSITIVE CYTOPLASMIC SIGNAL >90%, Total): 346 days | PFS median (CD68 POSITIVE FOLLICULAR 26-50): 9.1 mo | PFS median (CD68 Pos Follic (0-50) & P11A[C/G]**, first line (P 0.0025)): 8.5 mo | PFS median (CD68 Pos Follic (0-50) & P11A[C/G]**, second line (n.s.)): 9.2 mo | PFS (CD68 high): did better on rituximab alone | Median PFS (Vc-R vs R) (Excluded: 20S % NUCLEAR STAINING 30-90 and P65 % POSITIVE CYTOPLASMIC SIGNAL >90%): 419 days | Median PFS (Vc-R vs R) (Excluded: AGEGRP <=65 and CD68 OVERALL POSITIVE 0-50): 351 days | Median PFS (Vc-R vs R) (Excluded: AGEGRP <=65 and P65 % POSITIVE CYTOPLASMIC SIGNAL >90%): 414 days | Median PFS (Vc-R vs R) (Excluded: CD68 OVERALL POSITIVE 0-50 and P65 % POSITIVE C[…] >90%): 375 days | Median PFS (Vc-R vs R) (Excluded: FLIPI High and P65 % POSITIVE CYTOPLASMIC SIGNAL >90%): 378 days | Median PFS (Vc-R vs R) (Excluded: PRITUX NO and P65 % NUCLEAR STAINING 0): 346 days | Median PFS (Vc-R vs R) (Excluded: PSMB1/P11A C/G and ANNARBOR >=III): 375 days | Median PFS (Vc-R vs R) (Excluded: PSMB1/P11A C/G and P65 % NUCLEAR STAINING 0): 346 days | Median PFS (Vc − R vs R) (FLIPI High + P27 % NUCLEI POSITIVE 0-70, Excluded): 351 days | Median PFS (Vc − R vs R) (FLIPI High + P27 % NUCLEI POSITIVE 0-70, Selected): 212 days | Median PFS (Vc − R vs R) (FLIPI High + P27 % NUCLEI POSITIVE 0-70, Total): 345 days | PFS median (HI Tumor BD NO & CD68 OVERALL POSITIVE: 0-50): 16 mo | PFS median (HI Tumor BD NO & CD68 POSITIVE FOLLICULAR: 0-50): 13.8 mo | PFS median (P65 Cytoplasmic signal >90% & 1 prior treatment*, first line (P 0.0132)): 10.6 mo | PFS median (P65 Cytoplasmic signal >90% & 1 prior treatment*, second line (n.s.)): 8.9 mo | PFS median (P65 INTENSITY CYTOPLASMIC SIGNAL <=1+): 9.3 mo | PFS median (PSMB1/P11A C/G): 9.3 mo | PFS median (PSMB1/P11A C/G & 20S % POSITIVE CYTOPLASMIC SIGNAL: >90): 9.5 mo | PFS median (PSMB1/P11A C/G & Age group: <=65): 9.2 mo | PFS median (PSMB1/P11A C/G & CD68 POSITIVE FOLLICULAR: 0-50): 9.1 mo | PFS median (PSMB1/P11A C/G & CD68 POSITIVE PERIFOLLICULAR: >50): 9.2 mo | PFS median (PSMB1/P11A C/G & PSMB5/R24C C/T): 7.8 mo | PFS median (PSMB1/P11A C/G & Time since last Rx: >1 year): 10.7 mo | Median PFS (Vc-R vs R) (PSMB1/P11A C/G + 20S % NUCLEAR STAINING 30-90, Excluded): 346 days | Median PFS (Vc-R vs R) (PSMB1/P11A C/G + 20S % NUCLEAR STAINING 30-90, Selected): 275 days | Median PFS (Vc-R vs R) (PSMB1/P11A C/G + 20S % NUCLEAR STAINING 30-90, Total): 345 days | Median PFS (Vc-R vs R) (PSMB1/P11A C/G + 20S INTENSITY CYTOPLASMIC SIGNAL <=2+, Excluded): 345 days | Median PFS (Vc-R vs R) (PSMB1/P11A C/G + 20S INTENSITY CYTOPLASMIC SIGNAL <=2+, Selected): 278 days | Median PFS (Vc-R vs R) (PSMB1/P11A C/G + 20S INTENSITY CYTOPLASMIC SIGNAL <=2+, Total): 345 days | Median PFS (Vc-R vs R) (PSMB1/P11A C/G + AGEGRP <=65, Excluded): 348 days | Median PFS (Vc-R vs R) (PSMB1/P11A C/G + AGEGRP <=65, Selected): 279 days | Median PFS (Vc-R vs R) (PSMB1/P11A C/G + AGEGRP <=65, Total): 345 days | Median PFS (Vc − R vs R) (PSMB1/P11A C/G + CD68 OVERALL POSITIVE 0-50, Excluded): 348 days | Median PFS (Vc − R vs R) (PSMB1/P11A C/G + CD68 OVERALL POSITIVE 0-50, Selected): 278 days | Median PFS (Vc − R vs R) (PSMB1/P11A C/G + CD68 OVERALL POSITIVE 0-50, Total): 345 days | Median PFS (Vc-R vs R) (PSMB1/P11A C/G + P27 % NUCLEI POSITIVE 0-70, Excluded): 348 days | Median PFS (Vc-R vs R) (PSMB1/P11A C/G + P27 % NUCLEI POSITIVE 0-70, Selected): 277 days | Median PFS (Vc-R vs R) (PSMB1/P11A C/G + P27 % NUCLEI POSITIVE 0-70, Total): 338 days | Median PFS (Vc-R vs R) (PSMB1/P11A C/G + P27 SIGNAL INTENSITY >=2+, Excluded): 346 days | Median PFS (Vc-R vs R) (PSMB1/P11A C/G + P27 SIGNAL INTENSITY >=2+, Selected): 280 days | Median PFS (Vc-R vs R) (PSMB1/P11A C/G + P27 SIGNAL INTENSITY >=2+, Total): 338 days
